Molecules are shown by their SMILES. Results filed as inconclusive are left out. Calls of active or inactive are those of the source.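 How the source made its calls: active means Wild-type ribosome reporter drop at least double the humanized mutant ribosome reporter drop, growth loss under a set limit; inconclusive means no clear call, values can overlap the other calls; inactive means the rest.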

This note sets out measurements from PubChem BioAssay AID977621 (Broad Institute, 2014).

In the assay the test system is E. coli wild-type GFP strain growth, fluorescence, 24 h. Briefly: wild-type E. coli growth inhibition versus H69 humanized strain – H69 mutant RFP, wild-type GFP, cherry-pick, dose response (AID 977621).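 Further: wild-type GFP and H69 mutant RFP strains grown together 50/50 in each well.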
The mark [1] stands for this setting: E. coli mixed culture, 24 h, measured here: total growth OD600, test 2.

`C[C@@H]1CN([C@@H](C)CO)C(=O)c2cc(NC(=O)Nc3cccc4ccccc34)ccc2O[C@@H](C)CCCCO[C@@H]1CN(C)C` showed an AC50 under setting [1] greater than 100 µM.

`Cc1cc2nc(-c3ccc4c(c3)CCC4)ccn2n1`: the AC50 is > 100 µM (inactive). Moreover, the AC50 under setting [1] was greater than 100 µM. On to `CN(C)CCCn1c(=O)n(Cc2ccco2)c(=O)c2c3c(sc21)CCCCC3`, for which the AC50 under setting [1] is greater than 100 µM. Take `CCn1nc(Cc2cccc3ccccc23)c(C#N)c1N`: the AC50 is > 100 µM (inactive). Same read-out and setting: in the case of `Cc1nc(C)c(-c2ccn(S(=O)(=O)c3ccc(Cl)cc3)n2)o1` it was > 100 µM (inactive). As to `O=S1(=O)c2ccc(Br)cc2OCCC2CCCCN21` (stereo not drawn), the AC50 was > 100 µM (inactive). In addition, the AC50 under setting [1] is greater than 100 µM. In the same order, the values of `CCOC(=O)c1nc(C)sc1-c1ccnn1S(=O)(=O)c1cccc(Cl)c1` are > 100 µM (inactive) and 45.7 µM. With `O=C(c1cnc(Cc2c[nH]c3ccccc23)c(I)c1)N1CCCCC1`, the AC50 under setting [1] stood at 29.6 µM.

For `COc1ccc(OC)c(C(=O)COC(=O)c2ccc([N+](=O)[O-])o2)c1`, the AC50 was > 100 µM (inactive). Also, the AC50 under setting [1] is greater than 100 µM. `O=C(Nc1ccc(F)c(Cl)c1)C1CC2CCC1C2` (stereo not drawn): the AC50 under setting [1] is greater than 100 µM. As to `O=C1NC(CCc2ccccc2)C(=O)N1Cc1cccc2ccccc12` (stereo not drawn), under setting [1], the AC50 is 50 µM.

As to `CSc1ccccc1OCc1cc(C(=O)N[C@H]2CCCCNC2=O)no1`, the AC50 is > 100 µM (inactive). As for `c1ccc(Cc2nc3ccccc3s2)cc1`, the AC50 was > 100 µM (inactive). The same compound returned an AC50 under setting [1] greater than 100 µM.

`Cc1ccc2c(c1C)OC(=O)CC2c1ccccc1` (stereo not drawn): the AC50 is > 100 µM (inactive).

As to `Cc1c(C(=O)N(Cc2ccc(F)cc2)C2CCS(=O)(=O)C2)oc2ccccc12` (stereo not drawn), the AC50 was > 100 µM (inactive). Still for that read-out and setting: then `CCOc1ccccc1OCCCC(=O)N1CCN(S(=O)(=O)c2cc(F)ccc2F)CC1`, with > 100 µM (inactive). `CCN(CC(=O)Nc1cccc(S(=O)(=O)N2CCCC2)c1)CC(=O)Nc1ccccc1OC` showed a half-maximal activity concentration (AC50) under setting [1] greater than 100 µM. For the compound `COc1ccc(NC(=O)c2sccc2-n2cccc2)cc1`, the AC50 was > 100 µM (inactive). Compound `CCOC(=O)c1cc(C)nc(N2CCCCC2)c1C#N` showed an AC50 under setting [1] greater than 100 µM. The same measure, in the same setting: in the case of `CC(=O)OC(COc1cccc(C)c1)Cn1cnc2ccccc21` (stereo not drawn) it was 48.6 µM. As to `COC(=O)c1ccccc1OCCOCCOc1cccc2ccc(C)nc12`, the AC50 is > 100 µM (inactive). As for `COc1ccc(OC)c(-c2nnc3n2N=C(c2ccc(OC)c(OC4CCOC4)c2)CS3)c1` (stereo not drawn), the AC50 was > 100 µM (inactive). Under setting [1], this compound gave an AC50 greater than 100 µM. For the compound `Oc1ccc2c3c1OC1c4oc5ccccc5c4C[C@@]4(O)[C@@H](C2)N(CC2CC2)CC[C@]314` (stereo partly drawn), the AC50 is > 100 µM (inactive). On the same count and under the same terms, in the case of `O=C(c1ccc(Cl)cc1)N1CCN(c2cccc3[nH]ccc23)CC1` it was > 100 µM (inactive).

Regarding `COc1ccc(C(=O)COC(=O)c2ccccc2O)c(OC)c1`, the AC50 is > 100 µM (inactive).

In turn, `Cc1ccc(NS(=O)(=O)c2cc(C(=O)N3CCc4ccccc4C3)ccc2Cl)cc1` displayed a half-maximal activity concentration (AC50) under setting [1] of 33.3 µM. The same measure, in the same setting: in the case of `COc1cccc(NC(=O)C(c2ccccc2)N2CCN(c3ccccn3)CC2)c1` (stereo not drawn) it was greater than 100 µM. For `Nc1nc(SCc2ccccc2)c2ncn(Cc3ccccc3)c2n1`, the AC50 was > 100 µM (inactive). Also, the AC50 under setting [1] worked out at 41.2 µM. In the case of `Cc1ccc(S(=O)(=O)Nc2ccc3c(c2)C(=O)N([C@H](C)CO)C[C@@H](C)[C@H](CN(C)C(=O)c2ccccc2)OCCCC[C@@H](C)O3)cc1`, the AC50 under setting [1] was greater than 100 µM. For `O=C(Cn1c2[n+](c3ccc(C(F)(F)F)cc31)CCCCC2)c1ccc2c(c1)OCCO2`, the AC50 is > 100 µM (inactive). Take `O=C(c1cc(C(=O)N2CCOCC2)c2nc3ccccc3n2c1)c1cc(Cl)cc(Cl)c1O`: the AC50 is > 100 µM (inactive). Further, the AC50 under setting [1] was greater than 100 µM. As to `CCOC(=O)c1ccc(CC(=O)c2oc3cc(O)ccc3c2C)o1`, the AC50 is > 100 µM (inactive).

As to `Cc1csc2c(N3CCC(C(=O)O)CC3)ncnc12`, the AC50 was > 100 µM (inactive). As for `Cc1ccc(C(=O)OCC(=O)c2c[nH]c3ccccc23)cc1NC(=O)c1ccco1`, the AC50 was > 100 µM (inactive). Consider `CCN(CC(=O)Nc1ccccc1OC)CC(=O)Nc1c(Cl)ccc(C)c1Cl`, for which the AC50 was > 100 µM (inactive).

As to `CC(C)(C)c1ccc(S(=O)(=O)NCc2ccc(C(=O)NCc3ccccn3)cc2)cc1`, the concentration at half-maximal activity (AC50) under setting [1] was greater than 100 µM. For `Fc1cccc(CCN2C(=S)NC[C@@H]2CC2CCCCC2)c1`, the AC50 is > 100 µM (inactive). This compound also gave an AC50 under setting [1] of 6.09 µM. Turning to `CC(=O)Nc1ccc(OCC(=O)N2CCC(Cc3ccccc3)CC2)cc1`, the AC50 under setting [1] is greater than 100 µM. On the same count and under the same terms, in the case of `O=S(=O)(c1ccc(F)cc1)N1C[C@@H]2N[C@H](C1)C2c1ccc(/C=C/c2ccccc2)cc1` (stereo partly drawn) it was 41.3 µM. Take `CN(Cc1ccccc1)C(=O)c1[nH]cnc1C(=O)NCc1ccccc1`: the AC50 was > 100 µM (inactive). Besides, under setting [1], the AC50 is greater than 100 µM. Consider `COc1cc2c(cc1OC)CN(c1ccc([N+](=O)[O-])c(C(F)(F)F)c1)CC2`, for which the AC50 is > 100 µM (inactive). Where the note is “measured here: total growth OD600, test 2”, this compound displayed an AC50 greater than 100 µM. With `CN1CCN(C(=O)c2cc3sc4ccccc4c3s2)CC1`, the AC50 is > 100 µM (inactive). Same read-out and setting: in the case of `Cc1noc(C)c1NC(=O)Nc1ccc2c(c1)C(=O)N([C@@H](C)CO)C[C@H](C)[C@H](CN(C)C(=O)Nc1ccc3c(c1)OCO3)OCCCC[C@H](C)O2` it was > 100 µM (inactive). Regarding `NS(=O)(=O)c1cccc(NC(=O)CSc2nc3ccccc3n2-c2ccccc2)c1`, the AC50 was > 100 µM (inactive). The AC50 under setting [1] amounted to 40.3 µM. Turning to `CCCC#C/C(CCC)=C1\c2ccccc2C(=O)N1c1ccccc1`, the AC50 under setting [1] is greater than 100 µM. Regarding `S=C1SCN(Cc2cccnc2)CN1Cc1cccnc1`, the AC50 under setting [1] was greater than 100 µM. Turning to `N#Cc1ccsc1NC(=O)CSc1nnnn1-c1ccc(O)cc1`, the AC50 is > 100 µM (inactive). For the compound `Cc1nn(-c2ccccc2)c(C)c1CN(C)C(=O)c1ccc(S(=O)(=O)NCc2ccco2)cc1`, the AC50 was > 100 µM (inactive).

`O=C(NCc1ccco1)c1ccc2ccccc2n1`: the half-maximal activity concentration (AC50) under setting [1] is greater than 100 µM.

In the case of `Cc1ccc(-c2c[n+](CC(=O)Nc3ccccc3)c3n2CCC3)cc1`, the AC50 under setting [1] was greater than 100 µM. In the case of `CCN(CC)S(=O)(=O)c1cc(NS(=O)(=O)c2cccc(Cl)c2Cl)ccc1C`, the AC50 is > 100 µM (inactive). The AC50 under setting [1] was found to be 33.4 µM. Regarding `O=C(NCc1nnc(SCc2ccccc2)n1-c1ccccc1)C12CC3CC(CC(C3)C1)C2`, the AC50 was > 100 µM (inactive). Under setting [1], this compound showed an AC50 of 38.6 µM. Take `COc1ccc(OC)c(S(=O)(=O)Nc2cccc3ccccc23)c1`: the AC50 was > 100 µM (inactive). On the same count and under the same terms, then `O=C(C[n+]1ccn(-c2ccccc2)c1)c1ccc([N+](=O)[O-])cc1`, with > 100 µM (inactive). Turning to `O=C(CC(=O)c1cccs1)c1ccncc1`, the AC50 is > 100 µM (inactive). On to `CC(OC(=O)COc1ccccc1)C(=O)NC1CCCC1` (stereo not drawn), for which the AC50 is > 100 µM (inactive). The AC50 under setting [1] was greater than 100 µM. `O=C(Nc1cc(S(=O)(=O)N2CCCCC2)ccc1N1CCCCC1)C1CC1` registered an AC50 under setting [1] greater than 100 µM. `COc1ccc(NC(=O)c2oc3ccccc3c2NC(=O)C2CCCO2)cc1OC` (stereo not drawn): the AC50 was > 100 µM (inactive).
